Several values for one entry are separate records, joined by “and”; a condition that tells them apart may be missing. Equal entries are not always repeated.
Columns and labels:
EMRSA-15 [1] = test: MIC of oxacillin in absence or presence of fixed concentration of compound; format: cell-based, Staphylococcus aureus
Procedure: (§1) Bacterial strains: S. aureus BB568 (COL-type strain that carries mecA and pT181) was provided by Professor B. Berger-Bächi. EMRSA-15 and EMRSA-16 were clinical isolates from the Royal Free Hospital, London.
(§2) Antibacterial susceptibility testing: Minimum Inhibitory Concentration (MIC) was determined by both broth and agar dilution techniques. Broth MIC testing was performed in 96-well microtitre trays with an inoculum of about 10^4 cfu in 100 μL of Mueller-Hinton broth (MHB) (Oxoid, Basingstoke, United Kingdom) supplemented with 2% NaCl. MIC determinations by agar dilution were carried out using Mueller-Hinton agar (Oxoid) with an inoculum of about 10^4 organisms per spot. For both methods, MIC values were obtained after incubation at 35° C. for 24 h. S. aureus ATCC29213 was used as the standard.
(§3) With the amide derivatives (21 and 24) in hand, their efficacy as modulators for β-lactam resistance in S. aureus was evaluated by determining their capcity to reduce the minimum inhibitory concentration (MIC) of oxacillin against MRSA strains BB 568, EMRSA-15 and EMRSA-16 as described in example 2.
(§4) With the B-ring modified analogues 47 and 48 in hand, their efficacy as modulators for β-lactam resistance in S. aureus was evaluated by determining their capacity to reduce the minimum inhibitory concentration (MIC) of oxacillin against MRSA strains BB 568, EMSRA-15 and EMSRA-16 (Table 5)

S. aureus BB568 [2] = test: as above; format: cell-based, Staphylococcus aureus; conditions: BB 568
Procedure: as §1, §2, §3, §4

EMRSA-16 [3] = test: as above; format: cell-based, Staphylococcus aureus
Procedure: as §1, §2, §3, §4

porcine liver esterase = test: Esterase sensitivity; format: in vitro ADME; conditions: porcine liver esterase (Sigma), 10 min at 37° C.
Procedure: The product of example 1 was tested for in esterase sensitivity as compared to ECG using commercially available porcine liver esterase (Sigma).

40 MRSA strains = conditions: all 40 MRSA strains; cited from earlier work
EMRSA-16 cells = test: Binding of catechins to staphylococcal cells (HPLC of unbound catechin); set-up: species or system Staphylococcus aureus; conditions: compound added alone
Description: The method is based on Hashimoto, T. et al 1999.

MRSA strain BB568 = conditions: cited from earlier work; for MIC of oxacillin in combination with compound: fixed sub-inhibitory concentration of compound
[4] = tested on: MRSA strains BB 568, EMRSA-15 and EMRSA-16; test: Modulation of oxacillin resistance, summary over three strains; format: cell-based, Staphylococcus aureus; conditions: for potency as oxacillin sensitiser compared with ECg: 6.25 mg/L of catechin gallate
Procedure: as §1, §2
(§5) Sub-inhibitory concentrations (6.25, 12.5 and 25 mg/L) of both compounds were effective in reducing the MIC of all three strains examined.
At a concentration of 25 mg/L, ECg and the two analogues (47 and 48) fully sensitised each of the three MRSA strains to oxacillin, reducing the MICs to less than 0.5 mg/L, a figure well below the clinically-relevant breakpoint for β-lactam antbiotics.

EMRSA-15 [5] = test: MIC of compound alone, broth dilution; format: cell-based, Staphylococcus aureus; conditions: MHB + 2% NaCl, 35° C., 24 h
Procedure: as §1, §2

S. aureus BB568 [6] = test: MIC of compound alone, broth dilution; format: cell-based, Staphylococcus aureus; conditions: 35° C., 24 h
Procedure: as §1, §2

EMRSA-16 [7] = test: MIC of compound alone, broth dilution; format: cell-based, Staphylococcus aureus; conditions: MHB + 2% NaCl, 35° C., 24 h
Procedure: as §1, §2

[8] = tested on: MRSA strains BB 568, EMRSA-15 and EMRSA-16; test: Intrinsic antibacterial activity, summary over three strains; format: cell-based, Staphylococcus aureus; conditions: compound alone, in words
Procedure: as §1, §2, §5

[9] = in presence of 6.25 mg/L compound
[10] = in presence of 12.5 mg/L compound
[11] = in presence of 25 mg/L compound
[12] = in presence of 12.5 mg/L compound, listed as ECG
[13] = Staphylococcus aureus, absence of compound, 35° C., 24 h
[14] = Staphylococcus aureus, read-out: MIC
[15] = Staphylococcus aureus, BB568, BB 568, MHB + 2% NaCl, read-out: MIC

O=C(O[C@@H]1Cc2c(O)cc(O)cc2O[C@@H]1c1ccc(O)c(O)c1)c1cc(O)c(O)c(O)c1 [ECg, (−)-epicatechin gallate, reference compound]
Oxacillin MIC (EMRSA-15 [1]; [9]): ≦0.5 mg/L
Oxacillin MIC (EMRSA-15 [1]; [10]): ≦0.5 mg/L
Oxacillin MIC (EMRSA-15 [1]; [11]): ≦0.5 mg/L
Oxacillin MIC (S. aureus BB568 [2]; [9]): 1 mg/L
Oxacillin MIC (S. aureus BB568 [2]; [10]): ≦0.5 mg/L
Oxacillin MIC (S. aureus BB568 [2]; [12]): 1 mg/L
Oxacillin MIC (S. aureus BB568 [2]; [11]): ≦0.5 mg/L
Oxacillin MIC (EMRSA-16 [3]; [9]): ≦0.5 mg/L
Oxacillin MIC (EMRSA-16 [3]; [10]): ≦0.5 mg/L
Oxacillin MIC (EMRSA-16 [3]; [12]): 1 mg/L
Oxacillin MIC (EMRSA-16 [3]; [11]): ≦0.5 mg/L
hydrolysis by esterase (porcine liver esterase): totally hydrolysed
reduction of β-lactam MIC (40 MRSA strains): reduced the MIC values to the susceptibility breakpoint or below
Binding (%) (EMRSA-16 cells): 22%
MIC of oxacillin in combination with compound (MRSA strain BB568): 1 µg/mL

Cc1onc(-c2ccccc2)c1C(=O)N[C@@H]1C(=O)N2[C@@H]1SC(C)(C)[C@@H]2C(=O)O [Oxacillin, oxacillin, reference compound]
MIC (EMRSA-15 [1]; [13]): 32 µg/mL
Oxacillin MIC (S. aureus BB568 [2]; absence of compound, 35° C., 24 h, listed as Oxacillian): 256 mg/L
MIC (S. aureus BB568 [2]; Staphylococcus aureus, BB568, absence of compound, 35° C., 24 h): 256 µg/mL
MIC (EMRSA-16 [3]; [13]): 512 µg/mL
MIC for oxacillin (MRSA strain BB568; oxacillin alone): 256 µg/mL

Oc1cc(O)c2c(c1)O[C@H](c1cc(O)c(O)c(O)c1)[C@H](O)C2 [EGC, epigallocatechin]
MIC of oxacillin in combination with compound (MRSA strain BB568): inactive

O=C(O[C@@H]1Cc2c(O)cc(O)cc2O[C@@H]1c1cccc(O)c1)c1cc(O)c(O)c(O)c1 [Compound 47, (−)-3-hydroxy B ring modified (−)-ECg]
Oxacillin MIC (EMRSA-15 [1]; [9]): 2 mg/L
Oxacillin MIC (EMRSA-15 [1]; [10]): ≦0.5 mg/L
Oxacillin MIC (EMRSA-15 [1]; [11]): ≦0.5 mg/L
Oxacillin MIC (S. aureus BB568 [2]; [9]): 16 mg/L
Oxacillin MIC (S. aureus BB568 [2]; [10]): 2 mg/L
Oxacillin MIC (S. aureus BB568 [2]; [11]): ≦0.5 mg/L
Oxacillin MIC (EMRSA-16 [3]; [9]): 32 mg/L
Oxacillin MIC (EMRSA-16 [3]; [10]): 1 mg/L
Oxacillin MIC (EMRSA-16 [3]; [11]): ≦0.5 mg/L
potency as oxacillin sensitiser compared with ECg [4]: less potent than the natural compound
MIC (EMRSA-15 [5]): >128 mg/L
MIC (S. aureus BB568 [6]; BB 568, MHB + 2% NaCl): >128 mg/L
MIC (EMRSA-16 [7]): 128 mg/L
intrinsic antibacterial activity [8]: little or no intrinsic antibacterial activity

O=C(N[C@@H]1Cc2c(O)cc(O)cc2O[C@@H]1c1ccc(O)c(O)c1)c1cc(O)c(O)c(O)c1 [Ex 1]
Oxacillin MIC (EMRSA-15 [1]; [10]): 1/1
Oxacillin MIC (S. aureus BB568 [2]; [10]): 32/64
Oxacillin MIC (S. aureus BB568 [2]; [11]): 4/8
Oxacillin MIC (EMRSA-16 [3]; [10]): 32/64
Oxacillin MIC (EMRSA-16 [3]; [11]): 1/1
Oxacillin MIC, each of the three MRSA strains [4, 11]: able to reduce the resistance to oxacillin of all three strains
hydrolysis by esterase (porcine liver esterase): not affected
MIC (EMRSA-15 [5]): 128/256
MIC (EMRSA-15 [5]; [14]): 256 mg/L
MIC (S. aureus BB568 [6]; BB 568, MHB + 2% NaCl): 128/256
MIC (S. aureus BB568 [6]; [15]): 256 mg/L
MIC (EMRSA-16 [7]): 128/128
MIC (EMRSA-16 [7]; [14]): 128 mg/L
intrinsic antibacterial activity [8]: extremely weak intrinsic antibacterial activity

O=C(N[C@H]1Cc2c(O)cc(O)cc2O[C@@H]1c1ccc(O)c(O)c1)c1cc(O)c(O)c(O)c1 [Compound 24]
Oxacillin MIC (EMRSA-15 [1]; [11]): significant degree of sensitisation and 2/4
Oxacillin MIC (S. aureus BB568 [2]; [11]): 64/64
Oxacillin MIC (EMRSA-16 [3]; [11]): 256/512
MIC (EMRSA-15 [5]; [14]): 256 mg/L
MIC (S. aureus BB568 [6]; [15]): 256 mg/L
MIC (EMRSA-16 [7]; [14]): 128 mg/L
intrinsic antibacterial activity [8]: extremely weak intrinsic antibacterial activity

O=C(O[C@@H]1Cc2c(O)cc(O)cc2O[C@@H]1c1cc(O)cc(O)c1)c1cc(O)c(O)c(O)c1 [Compound 48, (−)-3,5-dihydroxy B ring modified (−)-ECg]
Oxacillin MIC (EMRSA-15 [1]; [9]): 2 mg/L
Oxacillin MIC (EMRSA-15 [1]; [10]): ≦0.5 mg/L
Oxacillin MIC (EMRSA-15 [1]; [11]): ≦0.5 mg/L
Oxacillin MIC (S. aureus BB568 [2]; [9]): 16 mg/L
Oxacillin MIC (S. aureus BB568 [2]; [10]): 1 mg/L
Oxacillin MIC (S. aureus BB568 [2]; [11]): ≦0.5 mg/L
Oxacillin MIC (EMRSA-16 [3]; [9]): 64 mg/L
Oxacillin MIC (EMRSA-16 [3]; [10]): ≦0.5 mg/L
Oxacillin MIC (EMRSA-16 [3]; [11]): ≦0.5 mg/L
potency as oxacillin sensitiser compared with ECg [4]: less potent than the natural compound
MIC (EMRSA-15 [5]): 64 mg/L
MIC (S. aureus BB568 [6]; BB 568, MHB + 2% NaCl): 128 mg/L
MIC (EMRSA-16 [7]): 32 mg/L
intrinsic antibacterial activity [8]: weak to moderate anti-staphylococcal activity

O=C(O[C@@H]1Cc2c(O)cc(O)cc2O[C@@H]1c1cc(O)c(O)c(O)c1)c1cc(O)c(O)c(O)c1 [EGCg, epigallocatechin gallate]
Binding (%) (EMRSA-16 cells): 16.2%
MIC of oxacillin in combination with compound (MRSA strain BB568): 8 µg/mL

Source: patent US7700646B2, “Compounds for use in the treatment of infection” (The University of London, School of Pharmacy, priority 2004, dated 2010)
